Measurements: patent publication CN110668932A, “一种共晶体及制备方法、包含共晶体的药物组合物及用途” (Individual, priority 2019, dated 2020)

What was measured:
[1] = system: human gastric cancer SGC-7901 cells, human liver cancer Bet-7402 cells, human lung cancer H460 cells (人胃癌SGC-7901细胞、人肝癌Bet-7402细胞、人肺癌H460细胞); assay: In vivo antitumour experiment in mice (Experimental Example 1); design: species or system mouse; conditions: 2 mg/kg active ingredient, oral, twice daily, 15-20 days; for tumor size / weight vs negative control group: compared with negative control group; for tumor inhibition effect: mice
[2] = system: metabolic syndrome model rats (代谢综合征模型大鼠); assay: Effect in metabolic syndrome model rats (Experimental Example 4); assay type: in vivo, rat; conditions: 10 mL/kg, once daily, gavage, 8 weeks; for serum LDL-C level vs control group / serum TG level vs control group: compared with control group (standard feed); for serum LDL-C level vs model group / serum TG level vs model group: compared with model group
[3] = Liver injury side effect experiment in mice, ALT and AST (Experimental Example 5); assay type: in vivo, mouse; conditions: 0.012 g/kg, gavage, 2 weeks, Kunming mice; for ALT / ASL: serum, compared with normal control group

Compound | tumor size / weight vs negative control group [1] | tumor inhibition effect [1] | serum LDL-C level vs control group [2] | serum TG level vs control group [2] | serum LDL-C level vs model group [2] | serum TG level vs model group [2] | liver injury effect [3] | ALT [3] | ASL [3]
CC(=O)O[C@H]1C(=O)[C@@]2(C)[C@H]([C@H](OC(=O)c3ccccc3)[C@]3(O)C[C@H](OC(=O)[C@H](O)[C@@H](NC(=O)c4ccccc4)c4ccccc4)C(C)=C1C3(C)C)[C@]1(OC(C)=O)CO[C@@H]1C[C@@H]2O [紫杉醇] | 肿瘤明显减小,低于阴性对照组 | 具有较好的抑制肿瘤的效果 | – | – | – | – | – | – | –
COc1cc(CCC(=O)CC(=O)CCc2ccc(O)c(OC)c2)ccc1O [SHCUR, 四氢姜黄素] | 肿瘤明显减小,低于阴性对照组 | 具有较好的抑制肿瘤的效果 | 较高 | 较高 | 较低 | 较低 | 没有明显肝损伤作用 | 与正常对照组相近 | 与正常对照组相近
COc1cc(CCC(=O)CC(=O)CCc2ccc(O)cc2)ccc1O [SHDMCUR, 四氢去甲氧基姜黄素] | 肿瘤明显减小,低于阴性对照组 | 具有较好的抑制肿瘤的效果 | 较高 | 较高 | 较低 | 较低 | 没有明显肝损伤作用 | 与正常对照组相近 | 与正常对照组相近
O=C(CCc1ccc(O)cc1)CC(=O)CCc1ccc(O)cc1 [四氢双去甲氧基姜黄素] | 肿瘤明显减小,低于阴性对照组 | 具有较好的抑制肿瘤的效果 | 较高 | 较高 | 较低 | 较低 | 没有明显肝损伤作用 | 与正常对照组相近 | 与正常对照组相近
